According to patent US6528488B2, “Method for treating cystic fibrosis” (priority 1999, dated 2003):
“And” between values parts separate entries of the source, which are not always exact repeats. Equal values may be shown once. Read-outs that look alike come from different tables or passages of the source. Ends that are not written are not given here.

Key:
P. aeruginosa [1] = format: cell-based; details: ATCC strains and clinical CF isolates of Table 2 (assays D and A)
Procedure: These Pseudomonas clinical isolates, as well as a variety of Pseudomonas ATCC strains, were tested for their susceptibility to the histatin derivative having the sequence Ala-Lys-Arg-His-His-Gly-Tyr-Lys-Arg-Lys-Phe- His-NH2 (SEQ ID NO: 1) (P-113). P-113 was used at a concentration of 100 μg/mL to […]. P. aeruginosa ATCC 27853 was used as a control in each assay. The ATCC strains were tested using Direct Antibacterial Assay SOP 98-020; the clinical isolates were tested using either the Direct Antibacterial Assay (D) or Alamar Blue Antimicrobial/Antifungal Assay SOP 96-018 (A).
The Direct Assay is an MIC test in microtiter plate format in which cells resuspended in LM broth are exposed to two-fold dilutions of P-113, and the cell density is determined directly after an overnight incubation. Cells are inoculated onto a blood agar plate and incubated for 18 hours at 37° C., and then stored at room temperature for use later in the day. Cells are resuspended and diluted based on the optical density to a final concentration of 5×10^5 per ml in LM broth containing two-fold dilutions of antibiotics. After 16-18 hours at 37° C., the optical density is measured with a Molecular Devices Thermonix plate reader. A reading of ˜0.3 over background is observed for cells grown in the absence of drug. Readings<0.01 correlated with no visible growth. […]

P. aeruginosa [2] = format: cell-based; details: for cfu/plate: replicate plates; for activity against P. aeruginosa: Example 5, FIG. 4; for efficacy in killing P. aeruginosa: Table 3, summary in words
Procedure: The standard procedure used for testing activity was incubation of the bacterial strain with the peptide for one hour at 37° C., followed by plating at two dilutions. Peptides having the following amino acid sequences (including P-113, as in Example 4) were tested for activity against P. aeruginosa under the conditions described above: P-113 and […] were tested against P. aeruginosa under the conditions described in the preceding examples. The dilution values were as follows: expected-2000 cfu/plate (in broth) from dilution A. A=1/2.5×dilution; plate 50 μl. B=1/2.5×dilution; plate 25 μl.

With “AKRHHGYKRKFH-NH2 [P-113, Ala-Lys-Arg-His-His-Gly-Tyr-Lys-Arg-Lys-Phe- His-NH2]” the “effectiveness against the Pseudomonas strains tested” value (P. aeruginosa [1]) was “effective against nearly all of the Pseudomonas strains tested”, the cfu/plate (P. aeruginosa [2]; 5 μM as printed, second P-113 5 μM line (after His-5 0.5 μM), dilution A) was 133 cfu/plate and 170 cfu/plate and the cfu/plate (P. aeruginosa [2]; 5 μM as printed, second P-113 5 μM line (after His-5 0.5 μM), dilution B) was 88 cfu/plate and 85 cfu/plate. For the same molecule, the cfu/plate (P. aeruginosa [2]; 50 μM, dilution A) was 0 cfu/plate, the cfu/plate (P. aeruginosa [2]; 200 μM, dilution A) was 0 cfu/plate and the cfu/plate (P. aeruginosa [2]; 200 μM, dilution B) was 0 cfu/plate. The “activity against P. aeruginosa” value (P. aeruginosa [2]) was “very active” and the “efficacy in killing P. aeruginosa” value (P. aeruginosa [2]) was “greater efficacy than His-5”.
With “Ala-Gln-Arg-His-His- Gly-Tyr-Lys-Arg-Gln-Phe-His-NH2 (AQRHHGYKRQFH-NH2) [P-113 Q2.10]” the “activity against P. aeruginosa” value (P. aeruginosa [2]) was “very active”.
In the case of “Ala-Lys-Arg-Leu- Leu-Gly-Tyr-Lys-Arg-Lys-Phe-Leu-NH2 (AKRLLGYKRKFL-NH2) [P-113 L4.5.12]”, the “activity against P. aeruginosa” value (P. aeruginosa [2]) is reported as “also active”.
In the case of “Ala-Lys-Gln-His-His-Gly- Tyr-Lys-Gln-Lys-Phe-His-NH2 (AKQHHGYKQKFH-NH2) [P-113 Q3.9]”, the “activity against P. aeruginosa” value (P. aeruginosa [2]) is reported as “also active”.
In the case of `C[C@H](NC(=O)[C@H](Cc1c[nH]cn1)NC(=O)[C@H](CO)NC(=O)[C@@H](N)CC(=O)O)C(=O)N[C@@H](CCCCN)C(=O)N[C@@H](CCCNC(=N)N)C(=O)N[C@@H](Cc1c[nH]cn1)C(=O)N[C@@H](Cc1c[nH]cn1)C(=O)NCC(=O)N[C@@H](Cc1ccc(O)cc1)C(=O)N[C@@H](CCCCN)C(=O)N[C@@H](CCCNC(=N)N)C(=O)N[C@@H](CCCCN)C(=O)N[C@@H](Cc1ccccc1)C(=O)N[C@@H](Cc1c[nH]cn1)C(=O)N[C@@H](CCC(=O)O)C(=O)N[C@@H](CCCCN)C(=O)N[C@@H](Cc1c[nH]cn1)C(=O)N[C@@H](Cc1c[nH]cn1)C(=O)N[C@@H](CO)C(=O)N[C@@H](Cc1c[nH]cn1)C(=O)N[C@@H](CCCNC(=N)N)C(=O)NCC(=O)N[C@@H](Cc1ccc(O)cc1)C(=O)O` [His-5, histatin 5, reference compound], the cfu/plate (P. aeruginosa [2]; 0.5 μM, dilution A) is reported as 150 cfu/plate and 164 cfu/plate, the cfu/plate (P. aeruginosa [2]; 0.5 μM, dilution B) is reported as 90 cfu/plate and 96 cfu/plate and the cfu/plate (P. aeruginosa [2]; 5 μM, dilution A) is reported as 143 cfu/plate and 159 cfu/plate. The cfu/plate (P. aeruginosa [2]; 5 μM, dilution B) was 73 cfu/plate and 68 cfu/plate, the cfu/plate (P. aeruginosa [2]; 200 μM, dilution A) was 0 cfu/plate and the cfu/plate (P. aeruginosa [2]; 200 μM, dilution B) was 0 cfu/plate. The “efficacy in killing P. aeruginosa” value (P. aeruginosa [2]) was “effective in killing these bacteria”.
With “Ala-Lys-Arg- Tyr-Tyr-Gly-Tyr-Lys-Arg-Lys-Phe-Tyr-NH2 (AKRYYGYKRKFY-NH2) [P-113 Y4.5.12]” the “activity against P. aeruginosa” value (P. aeruginosa [2]) was “very active”.
In the case of “Ala-Gln-Gln-His-His-Gly-Tyr- Lys-Gln-Gln-Phe-His-NH2 (AQQHHGYKQQFH-NH2) [P-113 Q2.3.9.10]”, the “activity against P. aeruginosa” value (P. aeruginosa [2]) is reported as “inactive”.
